Measurements: US8178530B2, “Imidazolopyrazine compounds useful for the treatment of degenerative and inflammatory diseases” (Janssen Pharmaceutica NV, priority 2006, dated 2012)

Assays:
[1] = test system: MMP1 expression by SFs; experiment: 'MMP assay': MMP1 expression by 'complex trigger' activated synovial fibroblasts (MMP1 ELISA); format: cell-based, human; details: Homo sapiens, Fibroblast, RASFs, 48 hrs
[2] = molecular target: T1, MAPKAPK5 (Homo sapiens, UniProt Q8IW41); experiment: MAPKAP-K5 assay (FlashPlate, 33P-ATP); format: biochemical; details: 0.6 μM ATP, 30 minutes at room temperature
T1 construct: 1 mU MAPKAP-K5
T1 sequence (Q8IW41 1-473): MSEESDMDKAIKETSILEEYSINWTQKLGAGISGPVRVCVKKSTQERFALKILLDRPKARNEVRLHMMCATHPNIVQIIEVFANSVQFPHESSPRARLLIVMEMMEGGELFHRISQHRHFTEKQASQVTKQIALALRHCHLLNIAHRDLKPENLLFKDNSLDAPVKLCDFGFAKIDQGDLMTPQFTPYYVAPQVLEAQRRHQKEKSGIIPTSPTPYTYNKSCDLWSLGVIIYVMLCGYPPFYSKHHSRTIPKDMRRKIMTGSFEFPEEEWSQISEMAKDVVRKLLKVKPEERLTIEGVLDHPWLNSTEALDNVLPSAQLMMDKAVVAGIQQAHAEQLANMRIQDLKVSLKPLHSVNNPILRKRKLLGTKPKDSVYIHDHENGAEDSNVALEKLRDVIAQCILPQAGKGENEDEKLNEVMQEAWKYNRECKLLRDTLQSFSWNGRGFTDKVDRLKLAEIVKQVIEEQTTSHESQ
Description: 3 μM MAPKAP-K5 peptide substrate

Compound	EC50 [1] [nM]	IC50 [2] [nM]
CN1CCN(c2ccc(Nc3ncc(-c4ccc(C(=O)NC5CC5)cc4)n4ccnc34)cc2)CC1 [Compound 117]	> 1000	> 1000
CC(C)N1CCN(c2ccc(Nc3ncc(-c4cc5c(o4)CNC5=O)n4ccnc34)cc2)CC1 [Compound 222]	501 to 1000	101 to 500
O[C@H]1CC[C@H](Nc2ncc(-c3cn[nH]c3)n3ccnc23)CC1 [Compound 25]	> 1000	> 1000
CCN(CC)CCNC(=O)c1ccc(Nc2ncc(-c3ccsc3)n3ccnc23)cc1 [Compound 73]	> 1000	> 1000
CC(C)N1CCN(c2ccc(Nc3ncc(-c4cc(F)c5c(c4)CNC5=O)n4ccnc34)cc2)CC1 [Compound 220, 7-Fluoro-5-{8-[4-(4-isopropyl-piperazin-1-yl)phenylamino]imidazo[1,2-a]pyrazin-5-yl}-2,3-dihydroisoindol-1-one]	> 1000	1 to 100
CCN(CC)CCNC(=O)c1ccc(Nc2ncc(-c3cccnc3)n3ccnc23)cc1 [Compound 72]	> 1000	> 1000
CCN(CC)CCNC(=O)c1ccc(Nc2ncc(-c3cn[nH]c3)n3ccnc23)cc1OC [Compound 48]	> 1000	> 1000
c1cn2c(-c3cn[nH]c3)cnc(Nc3ccc4[nH]ccc4c3)c2n1 [Compound 27]	> 1000	501 to 1000
Nc1ccc(Nc2ncc(-c3cn[nH]c3)n3ccnc23)cn1 [Compound 207]	> 1000	501 to 1000
CC(C)N1CCC(c2ccc(Nc3ncc(-c4csc(C(N)=O)c4)n4ccnc34)cc2)CC1 [Compound 199, 4-{8-[4-(1-Isopropylpiperidin-4-yl)phenyl-amino]imidazo[1,2-a]pyrazin-5-yl}thiophene-2-carboxylic acid amide]	101 to 500	101 to 500
CCN(CC)CCNC(=O)c1ccc(Nc2ncc(-c3nn[nH]n3)n3ccnc23)cc1 [Compound 68]	> 1000	> 1000
CN1CCN(c2ccc(Nc3ncc(-c4cn[nH]c4C(F)(F)F)n4ccnc34)cc2)CC1 [Compound 157, [4-(4-Methyl-piperazin-1-yl)-phenyl]-[5-(3-trifluoromethyl-1H-pyrazol-4-yl)-imidazo[1,2-a]pyrazin-8-yl]-amine]	> 1000	> 1000
CCN(CC)CCNC(=O)c1ccc(Nc2ncc(-c3cncnc3)n3ccnc23)cc1 [Compound 87]	> 1000	> 1000
CC(C)Oc1ccc(Nc2ncc(-c3ccc(C(N)=O)c(F)c3)n3ccnc23)cc1 [Compound 148]	501 to 1000	> 1000
CC(C)(C)OC(=O)c1ccc(Nc2ncc(-c3cn[nH]c3)n3ccnc23)cc1 [Compound 22]	> 1000	> 1000
CCN(CC)CCNC(=O)c1ccc(Nc2ncc(-c3n[nH]c(C)n3)n3ccnc23)cc1 [Compound 106]	> 1000	> 1000
O=C1NCc2cc(-c3cnc(Nc4ccc(N5CCOCC5)nc4)c4nccn34)ccc21 [Compound 214]	> 1000	1 to 100
CN1CCN(c2ccc(Nc3ncc(-c4ccc(C(=O)O)cc4)n4ccnc34)cc2)CC1 [Compound 43]	> 1000	> 1000
NC(=O)c1ccc(-c2cnc(Nc3ccc(-n4cc(-c5ccccn5)nn4)cc3)c3nccn23)cc1 [Compound 154, 4-{8-[4-(4-Pyridin-2-yl-[1,2,3]triazol-1-yl)-phenylamino]-imidazo[1,2-a]pyrazin-5-yl}-benzamide]	1 to 100	> 1000
NC(=O)c1cccc(Nc2ncc(-c3cn[nH]c3)n3ccnc23)c1 [Compound 10]	> 1000	> 1000
COc1cc(Nc2ncc(-c3cn[nH]c3)n3ccnc23)ccc1C(=O)NCc1ccccc1 [Compound 182]	> 1000	> 1000
O=C(NCc1ccc(O)cc1)c1ccc(Nc2ncc(-c3cc[nH]c(=O)c3)n3ccnc23)cc1 [Compound 112]	101 to 500	101 to 500
NC(=O)CN1CCC(c2ccc(Nc3ncc(-c4cn[nH]c4)n4ccnc34)cc2)CC1 [Compound 224, 2-(4-{4-[5-(1H-Pyrazol-4-yl)imidazo[1,2-a]pyrazin-8-ylamino]phenyl}piperidin-1-yl)acetamide]	> 1000	501 to 1000

Compound	EC50 [1] [nM]	IC50 [2] [nM]
CCN(CC)CCNC(=O)c1ccc(Nc2ncc(-c3ccc(O)cc3C(F)(F)F)n3ccnc23)cc1 [Compound 75]	> 1000	> 1000
CCOc1cc(-c2cnc(Nc3ccc(N4CCOCC4)cc3)c3nccn23)ccn1 [Compound 107]	> 1000	> 1000
NC(=O)c1cc(Nc2ncc(-c3cc(F)c(C(N)=O)c(F)c3)n3ccnc23)ccc1N1CCOCC1 [Compound 175, 4-[8-(3-Carbamoyl-4-morpholin-4-yl-phenylamino)-imidazo[1,2-a]pyrazin-5-yl]-2,6-difluoro-benzamide]	501 to 1000	101 to 500
CCN(CC)CCNC(=O)c1ccc(Nc2ncc(-c3ccc(CC(=O)O)cc3)n3ccnc23)cc1 [Compound 76]	> 1000	> 1000
FC(F)(F)CN1CCC(c2ccc(Nc3ncc(-c4cn[nH]c4)n4ccnc34)cc2)CC1 [Compound 196]	> 1000	> 1000
CCN(CCO)c1ccc(Nc2ncc(-c3cccc(C(N)=O)c3)n3ccnc23)cc1 [Compound 2]	> 1000	> 1000
c1cn2c(-c3nc[nH]n3)cnc(Nc3ccc(N4CCOCC4)cc3)c2n1 [Compound 91]	> 1000	> 1000
O=C1NCc2cc(-c3cnc(Nc4ccc(N5CCOCC5)cn4)c4nccn34)ccc21 [Compound 211]	> 1000	101 to 500
O=c1cc(-c2cnc(Nc3ccc(N4CCOCC4)cc3)c3nccn23)cc(C(F)(F)F)[nH]1 [Compound 161, 6-Trifluoromethyl-4-[8-(4-morpholin-4-ylphenylamino)imidazo[1,2-a]pyrazin-5-yl]-1H-pyridin-2-one]	> 1000	> 1000
Cc1cnc2c(Nc3ccc(N4CCOCC4)cc3)ncc(-c3ccc(C(N)=O)cc3)n12 [Compound 130, 4-[3-Methyl-8-(4-morpholin-4-ylphenylamino)imidazo[1,2-a]pyrazin-5-yl]benzamide]	> 1000	> 1000
CCN(CC)CCNC(=O)c1ccc(Nc2ncc(-c3ccc(C(=O)O)cc3)n3ccnc23)cc1 [Compound 47]	> 1000	> 1000
O=C(O)c1ccc(-c2cnc(Nc3ccc(C(=O)NCCN4CCOCC4)cc3)c3nccn23)cc1 [Compound 54]	> 1000	> 1000
CC(C)N1CCN(c2ccc(Nc3ncc(-c4ccc5c(c4)C(C)(C)NC5=O)n4ccnc34)cc2)CC1 [Compound 227]	> 1000	> 1000
NC(=O)c1ccc(-c2cnc(Nc3ccc(C(=O)NCCO)cc3)c3nccn23)cc1 [Compound 49]	> 1000	> 1000
CN1CCN(c2ccc(Nc3ncc(-c4ccc(=O)[nH]c4)n4ccnc34)cc2)CC1 [Compound 109]	> 1000	> 1000
CCN(CC)CCNC(=O)c1ccc(Nc2ncc(-c3ccc(O)c(OC)c3)n3ccnc23)cc1 [Compound 65]	> 1000	> 1000
CCN(CC)CCNC(=O)c1ccc(Nc2ncc(-c3cn[nH]c3)n3ccnc23)c(C)c1 [Compound 58]	> 1000	> 1000
c1cn2c(-c3cn[nH]c3)cnc(Nc3ccc(N4CCOCC4)cn3)c2n1 [Compound 208, N-(5-Morpholinopyridin-2-yl)-5-(1H-pyrazol-4-yl)imidazo[1,2-a]pyrazin-8-amine]	> 1000	> 1000
CN1CCN(c2ccc(Nc3ncc(-c4ccc(C(=O)N5CCCC5)cc4)n4ccnc34)cc2)CC1 [Compound 115]	> 1000	> 1000
c1cn2c(-c3ccc4[nH]ccc4c3)cnc(Nc3ccc(N4CCOCC4)cc3)c2n1 [Compound 21]	> 1000	> 1000
COc1cccc(Nc2ncc(-c3ccc(C(N)=O)cc3)n3ccnc23)c1 [Compound 19]	501 to 1000	> 1000
CCN(CCO)c1ccc(Nc2ncc(-c3ccc(O)cc3)n3ccnc23)cc1 [Compound 5]	101 to 500	> 1000
